Measured values as given in patent US10160748B2 (AbbVie Inc., priority 2015, dated 2018).

molecular target: TNFα trimer (Homo sapiens, UniProt P01375); assay: TNFα FP Competitive Binding Assay; settings: FP binding assay; 20 nM TNFα trimer, 1 nM OregonGreen488 probe; read-out: TNF IC50
How it was run: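 Fluorescence polarization competition: 20 nM TNFα trimer with 1 nM fluorescein-labelled probe in HEPES/NaCl/EDTA/Triton X-100 buffer, compound in 12-point 1:3 dilutions (final top 338 μM or 100 μM). Incubated 18-24 h, background-subtracted mP read, variable-slope dose-response fitting.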

TNFα trimer, sequence (P01375 77-233 limits assumed): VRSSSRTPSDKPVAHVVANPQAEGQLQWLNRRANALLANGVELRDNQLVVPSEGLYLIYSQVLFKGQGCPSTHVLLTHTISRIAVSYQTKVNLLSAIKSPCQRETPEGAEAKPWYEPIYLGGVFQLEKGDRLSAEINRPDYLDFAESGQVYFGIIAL

Row | SMILES | IC50 [nM]
1 | CC(=O)N1CCN(c2ncc(-c3ccc4c(=O)n(C)n(Cc5c(CO)cccc5OC(F)F)c4c3)cn2)C[C@H]1C [Example 48, (R)-6-(2-(4-Acetyl-3-methylpiperazin-1-yl)pyrimidin-5-yl)-1-(2-(difluoromethoxy)-6-(hydroxymethyl)benzyl)-2-methyl-1H-indazol-3(2H)-one] | < 1000
2 | Cc1cccc(C(C)n2c3cc(-c4cnc(N5CCN(C(=O)CO)[C@H](C)C5)nc4)ccc3c(=O)n2C)c1 (stereo partly drawn) [Example 116, 6-(2-((R)-4-(2-hydroxyacetyl)-3-methylpiperazin-1-yl)pyrimidin-5-yl)-2-methyl-1-(1-(m-tolyl)ethyl)-1H-indazol-3(2H)-one] | < 1000
3 | Cn1c(=O)c2ccc(-c3cnc(C(C)(C)O)nc3)cc2n1Cc1cc(NCC(C)(C)O)ccc1Cl [Example 122, 1-(2-Chloro-5-((2-hydroxy-2-methylpropyl)amino)benzyl)-6-(2-(2-hydroxypropan-2-yl)pyrimidin-5-yl)-2-methyl-1H-indazol-3(2H)-one] | 1000 to 10000
4 | Cc1ccc(OC(F)F)c(Cn2c3cc(-c4cnc(C5(C)CCNC5)nc4)ccc3c(=O)n2C)c1 (stereo not shown) [Example 87, 1-(2-(Difluoromethoxy)-5-methylbenzyl)-2-methyl-6-(2-(3-methylpyrrolidin-3-yl)pyrimidin-5-yl)-1H-indazol-3(2H)-one] | < 1000
5 | C[C@@H]1CN(c2ncc(-c3ccc4c(=O)n(C)n(Cc5ccccc5OC(F)F)c4c3)cn2)CCN1C(=O)[C@H](O)CC(=O)O [Example 50, (R)-4-((R)-4-(5-(1-(2-(Difluoromethoxy)benzyl)-2-methyl-3-oxo-2,3-dihydro-1H-indazol-6-yl)pyrimidin-2-yl)-2-methylpiperazin-1-yl)-3-hydroxy-4-oxobutanoic acid] | < 1000
6 | CC(=O)N1CCN(c2ncc(-c3ccc4c(=O)n(C)n(Cc5nc(C)ccc5Cl)c4c3)cn2)C[C@H]1C [Example 105, (R)-6-(2-(4-Acetyl-3-methylpiperazin-1-yl)pyrimidin-5-yl)-1-((3-chloro-6-methylpyridin-2-yl)methyl)-2-methyl-1,2-dihydro-3H-indazol-3-one] | < 1000
7 | COCCCNc1ncc(-c2ccc3c(=O)n(C)n(Cc4ccccc4OC(F)F)c3c2)cn1 [Example 2.22] | 1000 to 10000
8 | Cc1ccc(OC(F)F)c(Cn2c3cc(-c4ccc(C(C)(C)N)nc4)c(F)cc3c(=O)n2C)c1 [Example 89, 6-(6-(2-Aminopropan-2-yl)pyridin-3-yl)-1-(2-(difluoromethoxy)-5-methylbenzyl)-5-fluoro-2-methyl-1H-indazol-3(2H)-one 2,2,2-trifluoroacetate] | < 1000
9 | CC(=O)N1CCN(c2ncc(-c3ccc4c(=O)n(C)n(Cc5cc(CO)ccc5C(F)(F)F)c4c3)cn2)CC1 [Example 115, 6-(2-(4-Acetylpiperazin-1-yl)pyrimidin-5-yl)-1-(5-(hydroxymethyl)-2-(trifluoromethyl)benzyl)-2-methyl-1H-indazol-3(2H)-one] | < 1000
10 | C[C@@H]1CN(C(=O)CO)CCN1c1ncc(-c2cc3c(cc2F)c(=O)n(C)n3Cc2ccccc2OC(F)F)cn1 [Example 126, (R)-1-(2-(Difluoromethoxy)benzyl)-5-fluoro-6-(2-(4-(2-hydroxyacetyl)-2-methylpiperazin-1-yl)pyrimidin-5-yl)-2-methyl-1H-indazol-3(2H)-one] | < 1000
11 | CC(=O)N1CCN(c2ncc(-c3ccc4c(=O)n(C)n(Cc5cc(Cc6cn[nH]c6)ccc5OC(F)F)c4c3)cn2)C[C@H]1C [Example 110, (R)-1-(5-((1H-Pyrazol-4-yl)methyl)-2-(difluoromethoxy)benzyl)-6-(2-(4-acetyl-3-methylpiperazin-1-yl)pyrimidin-5-yl)-2-methyl-1H-indazol-3(2H)-one] | < 1000
12 | Cn1c(=O)c2ccc(-c3cnc(C(C)(C)O)nc3)cc2n1Cc1cc([C@@H]2CCC[C@@H]2C#N)ccc1OC(F)F (relative stereo) [Example 112, 2-(4-(Difluoromethoxy)-3-((6-(2-(2-hydroxypropan-2-yl)pyrimidin-5-yl)-2-methyl-3-oxo-2,3-dihydro-1H-indazol-1-yl)methyl)phenyl)cyclopentanecarbonitrile] | 1000 to 10000
13 | Cn1c(=O)c2ccc(-c3cnc(N4CCN5C(=O)OC[C@@H]5C4)nc3)cc2n1Cc1ccccc1OC(F)F [Example 2.26] | < 1000
14 | CC(c1ccccc1OC(F)F)n1c2cc(-c3cnc(N4CCOCC4)nc3)ccc2c(=O)n1C (stereo not shown) [Example 1.5] | 1000 to 10000
15 | CN1CC[C@H](Nc2ncc(-c3ccc4c(=O)n(C)n(Cc5cc(CO)ccc5OC(F)F)c4c3)cn2)CC1=O (single isomer, unassigned) [Example 27] | 1000 to 10000
16 | CC(=O)N1CCC(O)(c2ncc(-c3ccc4c(=O)n(C)n(Cc5ccccc5OC(F)F)c4c3)cn2)CC1 [Example 32, 6-(2-(1-Acetyl-4-hydroxypiperidin-4-yl)pyrimidin-5-yl)-1-(2-(difluoromethoxy)benzyl)-2-methyl-1H-indazol-3(2H)-one] | 1000 to 10000
17 | Cn1c(=O)c2cnc(-c3cnc(N4CCOCC4)nc3)cc2n1Cc1ccccc1OC(F)F [Example 17, 1-(2-(Difluoromethoxy)benzyl)-2-methyl-6-(2-morpholinopyrimidin-5-yl)-1H-pyrazolo[4,3-c]pyridin-3(2H)-one] | > 10000
18 | Cc1ccc(C#N)c(Cn2c3cc(-c4cnc(N5CCN6C(=O)NC[C@H]6C5)nc4)ccc3c(=O)n2C)c1 [Example 37, (S)-4-Methyl-2-((2-methyl-3-oxo-6-(2-(3-oxohexahydroimidazo[1,5-a]pyrazin-7(1H)-yl)pyrimidin-5-yl)-2,3-dihydro-1H-indazol-1-yl)methyl)benzonitrile] | 1000 to 10000
19 | CC(=O)N1CCN(c2ncc(-c3ccc4c(=O)n(C)n(Cc5cc(Cn6ccc(=O)[nH]6)ccc5OC(F)F)c4c3)cn2)C[C@H]1C [Example 101, (R)-6-(2-(4-Acetyl-3-methylpiperazin-1-yl)pyrimidin-5-yl)-1-(2-(difluoromethoxy)-5-((3-oxo-2,3-dihydro-H-pyrazol-1-yl)methyl)benzyl)-2-methyl-1,2-dihydro-3H-indazol-3-one] | 1000 to 10000
20 | C[C@@H]1C[C@@H](O)CCN1c1ncc(-c2ccc3c(=O)n(C)n(Cc4ccccc4OC(F)F)c3c2)cn1 [Example 19, 1-(2-(Difluoromethoxy)benzyl)-6-(2-((2R,4S)-4-hydroxy-2-methylpiperidin-1-yl)pyrimidin-5-yl)-2-methyl-1H-indazol-3(2H)-one] | < 1000
21 | Cc1ccc(OC(F)F)c(Cn2c3cc(C4=CCC(C(C)(C)O)OC4)c(F)cc3c(=O)n2C)c1 (stereo not shown) [Example #132, 1-(2-(Difluoromethoxy)-5-methylbenzyl)-5-fluoro-6-(6-(2-hydroxypropan-2-yl)-5,6-dihydro-2H-pyran-3-yl)-2-methyl-1H-indazol-3(2H)-one] | < 1000
22 | Cn1c(=O)c2ccc(-c3cnc(N4CC[C@@H](O)C4)nc3)cc2n1Cc1ccccc1OC(F)F [Example 2.5] | > 10000
23 | COC(=O)N1CCN(c2ncc(-c3ccc4c(=O)n(C)n(Cc5cc(C)ccc5OC(F)F)c4c3)cn2)C[C@H]1C [Example 23, (R)-Methyl 4-(5-(1-(2-(difluoromethoxy)-5-methylbenzyl)-2-methyl-3-oxo-2,3-dihydro-1H-indazol-6-yl)pyrimidin-2-yl)-2-methylpiperazine-1-carboxylate] | < 1000
24 | CCN(Cc1ccc(OC(F)F)c(Cn2c3cc(-c4cnc(N5CCN(C(C)=O)[C@H](C)C5)nc4)ccc3c(=O)n2C)c1)C(C)=O [Example 94, (R)—N-(3-((6-(2-(4-Acetyl-3-methylpiperazin-1-yl)pyrimidin-5-yl)-2-methyl-3-oxo-2,3-dihydro-1H-indazol-1-yl)methyl)-4-(difluoromethoxy)benzyl)-N-ethylacetamide] | 1000 to 10000

Further lines, results first:

Row | IC50 [nM] | SMILES
25 | < 1000 | CC(c1ccccc1F)n1c2cc(-c3cnc(N4CCN(C(=O)CO)[C@H](C)C4)nc3)ccc2c(=O)n1C (stereo partly shown) [Example 28.3]
26 | 1000 to 10000 | CC(C)[C@H](N)C(=O)OCc1ccc(OC(F)F)c(Cn2c3cc(-c4cnc(N5CCN6C(=O)OC[C@@H]6C5)nc4)ccc3c(=O)n2C)c1 [Example 14.4]
27 | < 1000 | CC(=O)N1CCN(c2ncc(-c3ccc4c(=O)n(C)n(Cc5ccccc5OC(F)F)c4c3)cn2)[C@H](C)C1 [Example 10.16]
28 | < 1000 | Cn1c(=O)c2ccc(-c3cnc(N4CCN5C(=O)OC[C@@H]5C4)nc3)cc2n1Cc1cc(CO)ccc1OC(F)F [Example 16.3, (S)-7-(5-(1-(2-(difluoromethoxy)-5-(hydroxymethyl)benzyl)-2-methyl-3-oxo-2,3-dihydro-1H-indazol-6-yl)pyrimidin-2-yl)tetrahydro-1H-oxazolo[3,4-a]pyrazin-3(5H)-one]
29 | 1000 to 10000 | Cc1ccc(OC(F)F)c(Cn2c3c(F)c(-c4cnc(C(C)(C)O)nc4)ccc3c(=O)n2C)c1 [Example 26.1]
30 | < 1000 | COc1c(-c2cnc(N3CCN(C(=O)CO)[C@H](C)C3)nc2)ccc2c(=O)n(C)n(Cc3ccccc3Cl)c12 [Example 24.9]
31 | < 1000 | C[C@@H]1CN(c2ncc(-c3ccc4c(=O)n(C)n(Cc5ccccc5OC(F)F)c4c3F)cn2)CCN1C(=O)CO [Example 24.6]
32 | < 1000 | C[C@H]1CN(C(=O)CO)CCN1c1ncc(-c2ccc3c(=O)n(C)n(Cc4ccccc4OC(F)F)c3c2)cn1 [Example 10.17]
33 | < 1000 | C[C@@H]1CN(c2ncc(-c3ccc4c(=O)n(C)n(Cc5ccccc5Cl)c4n3)cn2)CCN1C(=O)CO [Example 23.1]
34 | < 1000 | CC(=O)N1CCN(c2ncc(-c3ccc4c(=O)n(C)n(Cc5cc(CO)ccc5OC(F)F)c4c3)cn2)CC1 [Example 16.8]
35 | < 1000 | CC(C)[C@H](N)C(=O)OCC(=O)N1CCN(c2ncc(-c3ccc4c(=O)n(C)n(Cc5ccccc5OC(F)F)c4c3)cn2)C[C@H]1C [Example 14.12]
36 | < 1000 | C[C@@H]1CN(C(=O)CO)CCN1c1ncc(-c2ccc3c(=O)n(C)n(Cc4ccccc4OC(F)F)c3c2)cn1 [Example 10.14]
37 | < 1000 | CN1CCC(Nc2ncc(-c3ccc4c(=O)n(C)n(Cc5cc(CO)ccc5OC(F)F)c4c3)cn2)CC1=O (stereo not shown) [Example 16.9]
